Patent US20260159510A1, “HETEROCYCLIC COMPOUND, PREPARATION METHOD THEREFOR AND USE THEREOF” (GUANGZHOU DAGUANG PHARMACEUTICAL CO., LTD., priority 2022, published 2026)
Marks after values point to notes of the source that are not given here.

Key:
Assay type in all cases: in vivo, SD rats
[1] = tested on: rat models with focal cerebral ischemia-reperfusion (tMCAO); assay: Cerebral blood flow in tMCAO model rats; conditions: x ± s; for Cerebral blood flow 24 h after last administration / Cerebral blood flow improvement percentage / Recovery percentage of cerebral blood flow 24 h after last administration: 24 h after last of 3 administrations, 3×10^−5 mol/kg; for Cerebral blood flow before administration / Decrease percentage of cerebral blood flow before administration: after ischemia, before first administration; for Cerebral blood flow before ischemia: baseline before surgery, before any administration
Procedure: (§1) Rat models with focal cerebral ischemia-reperfusion (tMCAO) were prepared by using a suture-occluded method, and therapeutic effects of the test drugs on the tMCAO model rats were investigated.
(§2) A specific modeling method for the rat models with focal cerebral ischemia-reperfusion (tMCAO) is as follows. At 12 h before surgery, the rats were fed at about 30 g/piece. After induced anesthesia with 3-4% isoflurane and maintained anesthesia with 1.5-2.5% isoflurane were performed, the rats were placed at supine positions on an operating table at a constant temperature of 37° C. The skin in middle lines of necks was cut, subcutaneous tissues and muscles were bluntly separated, and common carotid arteries on right sides, internal carotid arteries and external carotid arteries were separated. Two ligation threads were allowed to penetrate through the external carotid arteries to ligate distal ends, an artery clamp was placed at the common carotid arteries and the internal carotid arteries, respectively, small incisions were made at 45° diagonally on the external carotid arteries at about 4 mm away from bifurcations of the common carotid arteries, and suitable suture occlusions were inserted to gently ligate proximal ends. The external carotid arteries were cut, directions and angles of the suture occlusions were adjusted, the suture occlusions were gently pushed and inserted into the internal carotid arteries, and then the artery clamps were released. The suture occlusions were continuously inserted until black dot marks of the suture occlusions reached junctions of the internal carotid arteries and the common carotid arteries at a length of about 18-20 mm. The proximal ends of the external carotid arteries were tightened, the suture occlusions were fixed, the skin was sutured after it was confirmed that there was no bleeding, the body temperature of the rats was maintained, and meloxicam as an analgesic drug was injected subcutaneously at 1 mg/kg.
(§3) At 2 h after ischemia, induced anesthesia with 3-4% isoflurane and maintained anesthesia with 1.5-2.5% isoflurane were performed, the skin sutures were cut, the ligation threads at the proximal ends of the external carotid arteries were opened, the suture occlusions were taken out, reperfusion was performed, ligation was performed again, and the skin was sutured after it was confirmed that there was no bleeding. In a sham-operated control group, other steps were the same as above except that the suture occlusions were inserted and pulled out immediately and the reperfusion was not required. After the surgery, the rats were allowed to lie prostrate and return to a cage.
(§4) When the animals were awake after modeling, behavioral scoring was performed on the animals with reference to a 4-point scoring standard of Zea longa. The animals with scores of 1-3 points were judged as successfully modeled animals, and the animals not meeting requirements were eliminated.
Method: SPF-grade male SD rats were used, the various tMCAO rat models were prepared by using the suture-occluded method, and the successfully modeled animals were randomly divided into 6 groups including a model control group, a test drug group 1, a test drug group 2, a test drug group 3, a test drug group 4 and a test drug group 5, with 6 or more animals in each group. In addition, the sham-operated control group was set, which involved 6 animals with the suture occlusions inserted and pulled out immediately in the surgery. At 4 h after the cerebral ischemia (at 4 h after the suture occlusions were pulled out in the sham-operated group), the various groups were given the various drugs or a vehicle for the first time. In each group, an administration dose was 3×10^−5 mol/kg, an administration volume was 3 mL/kg, administration was performed for a total of 3 times, and an administration time interval of every two times was 24 h. […]

[2] = tested on: rat models with focal cerebral ischemia-reperfusion (tMCAO); assay: Behavioral scoring of tMCAO model rats; conditions: about 24 h after last administration, x ± s
Procedure: as §1, §2, §3, §4
(§5) Method: SPF-grade male SD rats were used, the various tMCAO rat models were prepared by using the suture-occluded method, and the successfully modeled animals were randomly divided into 6 groups including a model control group, a test drug group 1, a test drug group 2, a test drug group 3, a test drug group 4 and a test drug group 5, with 6 or more animals in each group. In addition, the sham-operated control group was set, which involved 6 animals with the suture occlusions inserted and pulled out immediately in the surgery. […]

[3] = tested on: rat models with focal cerebral ischemia-reperfusion (tMCAO); assay: Rotarod test (latent period of falling) in tMCAO model rats; conditions: Gavage, 3 × 10^−5 mol/kg, 3 administrations, about 24 h after last administration, x ± s
Procedure: as §1, §2, §3, §4, §5

[4] = tested on: rat models with focal cerebral ischemia-reperfusion (tMCAO); assay: Percentage of cerebral infarction area (TTC staining) in tMCAO model rats; conditions: Gavage, about 24 h after last administration, x ± s
Procedure: as §1, §2, §3, §4, §5

[5] = tested on: rat models with focal cerebral ischemia-reperfusion (tMCAO); assay: Drug efficacy test in tMCAO model rats, overall result; conditions: latent period of falling, behavioral scores, infarction area, cerebral blood flow
Procedure: as §1
A specific modeling method for the rat models with focal cerebral ischemia-reperfusion (tMCAO) is as follows. At 12 h before surgery, the rats were fed at about 30 g/piece. After induced anesthesia with 3-4% isoflurane and maintained anesthesia with 1.5-2.5% isoflurane were performed, the rats were placed at supine positions on an operating table at a constant temperature of 37° C. The skin in middle lines of necks was cut, subcutaneous tissues and muscles were bluntly separated, and common carotid arteries on right sides, internal carotid arteries and external carotid arteries were separated. Two ligation threads were allowed to penetrate through the external carotid arteries to ligate distal ends, an artery clamp was placed at the common carotid arteries and the internal carotid arteries, respectively, small incisions were made at 45° diagonally on the external carotid arteries at about 4 mm away from bifurcations of the common carotid arteries, and suitable suture occlusions were inserted to gently ligate proximal ends. […]

SMILES	Cerebral blood flow 24 h after last administration [1] [BPU]	Cerebral blood flow improvement percentage [1]	Recovery percentage of cerebral blood flow 24 h after last administration [1]	Cerebral blood flow before administration [1] [BPU]	Decrease percentage of cerebral blood flow before administration [1] [%]	Cerebral blood flow before ischemia [1] [BPU]	Behavioral score ([2]; route printed as Intravenous injection and Gavage, 3 × 10^−5 mol/kg)	Latent period of falling (rotarod test) [3]	Percentage of cerebral infarction area ([4]; 3 × 10^−5 mol/kg) [%]	Behavioral score ([2]; Gavage, 3 × 10^−5 mol/kg)	Behavioral score ([2]; Gavage, 6 × 10^−5 mol/kg)	Overall therapeutic effect in tMCAO rats (in words; vs model control group and between test drug groups) [5]	Percentage of cerebral infarction area ([4]; 6 × 10^−5 mol/kg)
Cc1cc(OC(=O)c2cccnc2)n(-c2nc(C)c(C)nc2C)n1 [Test drug 1, 3-methyl-1-(3,5,6-trimethylpyrazin-2-yl)-1H-pyrazol-5-nicotinate]	304.8 ± 12.7	28.7 ± 4.9 %	87.8 ± 2.0 %	204.6 ± 10.3	40.9 ± 5.2	347.5 ± 19.3	1.9 ± 0.6	48.7 ± 14.0 s	4.6 ± 1.2				
CC(=O)Oc1cc(C)nn1-c1nc(C)c(C)nc1C [Test drug 2, 3-methyl-1-(3,5,6-trimethylpyrazin-2-yl)-1H-pyrazol-5-acetate]	367.8 ± 36.9	20.9 ± 13.8 %	79.3 ± 8.9 %	213.3 ± 16.6	41.6 ± 8.6	371.8 ± 51.6		35.2 ± 23.3 s	5.8 ± 2.2	2.3 ± 0.7			
CC(=O)Oc1ccccc1C(=O)Oc1cc(C)nn1-c1nc(C)c(C)nc1C [Test drug 3, 3-methyl-1-(3,5,6-trimethylpyrazin-2-yl)-1H-pyrazol-5-yl-2-acetoxybenzoate]	321.4 ± 54.0	30.3 ± 7.1 %	90.1 ± 4.2**^&& %	210.3 ± 15.1	40.1 ± 6.3	356.5 ± 56.6		49.7 ± 12.3 s			1.6 ± 0.7	better than the groups 2 and 5	3.5 ± 1.6**^& %
Cc1cc(OC(=O)c2ccccc2)n(-c2nc(C)c(C)nc2C)n1 [Test drug 4, 3-methyl-1-(3,5,6-trimethylpyrazin-2-yl)-1H-pyrazol-5-yl-benzoate]	321.2 ± 17.0	27.0 ± 7.3 %	87.0 ± 5.8**^& %	220.8 ± 16.4	40.0 ± 7.1	370.2 ± 17.2		43.8 ± 14.9 s	4.5 ± 2.5	1.7 ± 0.7		better than the groups 2 and 5	
Cc1cc(OC(=O)C(C)(C)C)n(-c2nc(C)c(C)nc2C)n1 [Test drug 5, 3-methyl-1-(3,5,6-trimethylpyrazin-2-yl)-1H-pyrazol-5-pivalate]	275.0 ± 20.5	21.2 ± 4.7*^ %	81.6 ± 5.9**^ %	203.3 ± 8.1	39.5 ± 4.4	337.9 ± 26.0		31.5 ± 14.5^ s			2.7 ± 0.9		2.9 ± 1.0 %
